Legend:
[1] = target: T1, Angiotensin-converting enzyme (Homo sapiens, UniProt P12821); experiment: Inhibitory concentration (isomer B) against Angiotensin I converting enzyme
[2] = target: T1, Angiotensin-converting enzyme; experiment: Inhibitory concentration (isomer A) against Angiotensin I converting enzyme
[3] = target: T1, Angiotensin-converting enzyme; experiment: Inhibitory concentration against Angiotensin I converting enzyme
[4] = target: T1, Angiotensin-converting enzyme; experiment: Inhibitory concentration against Angiotensin I converting enzyme; IA is Inactive with 0% inhibition at 3.3 x 10e-4;

T1 sequence (P12821 whole entry): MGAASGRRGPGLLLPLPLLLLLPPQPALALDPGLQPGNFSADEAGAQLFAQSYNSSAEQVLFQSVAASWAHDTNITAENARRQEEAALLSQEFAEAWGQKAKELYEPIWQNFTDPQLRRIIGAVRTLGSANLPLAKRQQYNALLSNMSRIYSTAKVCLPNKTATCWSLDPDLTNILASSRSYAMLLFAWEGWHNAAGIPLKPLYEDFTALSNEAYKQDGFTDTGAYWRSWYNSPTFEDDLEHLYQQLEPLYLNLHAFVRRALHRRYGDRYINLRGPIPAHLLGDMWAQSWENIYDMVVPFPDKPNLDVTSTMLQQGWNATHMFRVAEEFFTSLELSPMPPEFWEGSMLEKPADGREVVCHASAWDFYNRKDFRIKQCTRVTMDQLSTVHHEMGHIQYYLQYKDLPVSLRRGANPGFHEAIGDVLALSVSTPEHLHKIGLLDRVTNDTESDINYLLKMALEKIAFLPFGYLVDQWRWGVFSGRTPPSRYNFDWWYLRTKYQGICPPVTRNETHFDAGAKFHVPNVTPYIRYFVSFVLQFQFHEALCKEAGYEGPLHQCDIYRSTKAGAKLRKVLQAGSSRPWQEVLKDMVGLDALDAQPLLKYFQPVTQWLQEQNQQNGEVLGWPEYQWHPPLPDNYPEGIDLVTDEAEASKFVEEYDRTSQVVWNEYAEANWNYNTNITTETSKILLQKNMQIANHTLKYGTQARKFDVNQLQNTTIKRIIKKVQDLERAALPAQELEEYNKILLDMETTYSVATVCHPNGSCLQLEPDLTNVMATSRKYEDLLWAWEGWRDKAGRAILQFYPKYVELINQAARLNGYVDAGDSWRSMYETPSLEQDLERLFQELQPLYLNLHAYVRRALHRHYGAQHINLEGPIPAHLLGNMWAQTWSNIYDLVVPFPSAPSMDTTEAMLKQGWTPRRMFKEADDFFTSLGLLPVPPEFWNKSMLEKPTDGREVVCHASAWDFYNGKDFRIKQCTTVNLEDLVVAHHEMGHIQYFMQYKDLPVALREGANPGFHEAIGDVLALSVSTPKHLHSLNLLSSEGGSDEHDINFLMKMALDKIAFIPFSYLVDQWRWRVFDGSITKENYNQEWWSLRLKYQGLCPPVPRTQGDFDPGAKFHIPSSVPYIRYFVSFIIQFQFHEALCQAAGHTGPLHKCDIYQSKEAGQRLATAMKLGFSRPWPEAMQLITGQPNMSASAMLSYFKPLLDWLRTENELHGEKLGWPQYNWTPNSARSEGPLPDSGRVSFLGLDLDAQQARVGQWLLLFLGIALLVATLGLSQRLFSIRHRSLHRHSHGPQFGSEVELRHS

| IC50 [1] | IC50 [2] | IC50 [3] | IC50 [4] | SMILES |
| --- | --- | --- | --- | --- |
| 0.002 µM | – | – | – | O=C(O)CN1CCCCC[C@H](N[C@@H](CCc2ccccc2)C(=O)O)C1=O |
| 1.7 µM | 0.43 µM | – | – | O=C(O)CN1CCCC(NC(CCc2ccccc2)C(=O)O)C1=O (stereo unspecified) |
| – | – | 1700 µM | – | NC1CCCN(CC(=O)O)C1=O (stereo unspecified) |
| – | – | – | Not Active | NC1CCN(CC(=O)O)C1=O (stereo unspecified) |
| – | – | 480 µM | – | NC1CCCCN(CC(=O)O)C1=O (stereo unspecified) |
| 0.092 µM | – | – | – | O=C(O)CN1CCCCC[C@@H](N[C@H](CCc2ccccc2)C(=O)O)C1=O |
| – | – | 440 µM | – | NC1CCCCCN(CC(=O)O)C1=O (stereo unspecified) |
| 0.019 µM | 0.7 µM | – | – | O=C(O)CN1CCCCC(NC(CCc2ccccc2)C(=O)O)C1=O (stereo unspecified) |
| 0.0048 µM | 1.7 µM | – | – | O=C(O)CN1CCCCCC(NC(CCc2ccccc2)C(=O)O)C1=O (stereo unspecified) |
| 19 µM | 12 µM | – | – | O=C(O)CN1CCC(NC(CCc2ccccc2)C(=O)O)C1=O (stereo unspecified) |
| 0.0081 µM | 1.3 µM | – | – | O=C(O)CN1CCCCCCC(NC(CCc2ccccc2)C(=O)O)C1=O (stereo unspecified) |

Source: ChEMBL document CHEMBL1123398, “Conformationally restricted inhibitors of angiotensin converting enzyme: synthesis and computations” (J Med Chem, 1986)
